Assays:
[1] = test system: breast cancer cell line 4T1; test: MTT assay, cytotoxicity on 4T1; type: cell-based, mouse; conditions: for GI50: Mus musculus, MTT, 72 h, mean of two independent determinations; for inhibition % at fixed concentration, 4T1 (printed in GI50 column): @100 nM
Method: (§1) MTT assay was applied to verify the rationality of the molecular combination strategy. The cytotoxicity of the compounds was evaluated on lung cancer cell line A549, colon cancer cell line HCT-116, breast cancer cell line 4T1 and normal hepatocyte cell line LO2. Paclitaxel was used as a positive drug. […] The therapeutic index (TI) for LO2/HCT-116, LO2/A549 and LO2/4T1 of active compounds 4a, 4d, 13a, 17a, 17c and paclitaxel are shown in Table 2.
(§2) Cells were inoculated in 96-well plates (cell density 2 × 10^4 cells/well) followed by incubation for 24 h at 37 °C. Paclitaxel and target compounds were added to the corresponding well. Subsequently, the cultures were incubated for 72 h. After the MTT solution (50 µL, 2 mg/mL) was added to cultures, the plates were incubated for an additional 4 h. Purple colored formazan crystals were dissolved in 200 µL DMSO, and the absorbance was recorded at 570 nm using Synergy HT, Bio-Tek (Winooski, VT, USA).

[2] = test system: normal hepatocyte cell line LO2; test: MTT assay, cytotoxicity on normal cell LO2; type: cell-based; conditions: for inhibition % at fixed concentration, LO2 (printed in GI50 column): @2 μM; for GI50: Hepatocyte, MTT, 72 h, mean of two independent determinations
Method: as §1, §2

[3] = test system: lung cancer cell line A549; test: MTT assay, cytotoxicity on A549; type: cell-based, human; conditions: Homo sapiens, A549; MTT, 72 h; mean of two independent determinations
Method: as §1, §2

[4] = test system: colon cancer cell line HCT-116; test: MTT assay, cytotoxicity on HCT-116; type: cell-based, human; conditions: for GI50: Homo sapiens, HCT-116, MTT, 72 h, mean of two independent determinations
Method: as §1, §2

SMILES	GI50 [1]	GI50 [3]	GI50 [4]	other results
CC(=O)OC12COC1CC(O)C1(C)C(=O)C(O)C3=C(C)C(OC(=O)C(OC(=O)c4ccc(B(O)O)cc4)C(NC(=O)OC(C)(C)C)c4ccccc4)CC(O)(C(OC(=O)c4ccccc4)C21)C3(C)C (stereo not drawn) [Compound 6b, 2’-O-[4-boronobenzoyl]docetaxel]	> 100 nM			
CC(=O)OC1C(=O)C2(C)C(O)CC3OCC3(OC(C)=O)C2C(OC(=O)c2ccccc2)C2(O)CC(OC(=O)C(OC(=O)OCCCCCB(O)O)C(NC(=O)c3ccccc3)c3ccccc3)C(C)=C1C2(C)C (stereo not drawn) [Compound 10a, 2’-O-[5-boronopentyl carbonate]taxol]	> 100 nM	> 100 nM	> 100 nM	inhibition % at fixed concentration, LO2 (printed in GI50 column) [2]: 32.81%@2 μM
CC(=O)OC1C(=O)C2(C)C(O)CC3OCC3(OC(C)=O)C2C(OC(=O)c2ccccc2)C2(O)CC(OC(=O)C(OC(=O)CCCC(=O)OCc3ccc(B(O)O)cc3)C(NC(=O)c3ccccc3)c3ccccc3)C(C)=C1C2(C)C (stereo not drawn) [Compound 4c, 2’-O-[5-((4-boronobenzyl)oxy)-5-oxopentanoyl]taxol]	> 100 nM			
CC(=O)OC12COC1CC(O)C1(C)C(=O)C(O)C3=C(C)C(OC(=O)C(OC(=O)OCc4ccc(B(O)O)cc4)C(NC(=O)OC(C)(C)C)c4ccccc4)CC(O)(C(OC(=O)c4ccccc4)C21)C3(C)C (stereo not drawn) [Compound 13b, 2’-O-[4-boronobenzyl carbonate] docetaxel]	33.1 nM			
CC(=O)OC12COC1CC(O)C1(C)C(=O)C(O)C3=C(C)C(OC(=O)C(OC(=O)OCCCCCCB(O)O)C(NC(=O)OC(C)(C)C)c4ccccc4)CC(O)(C(OC(=O)c4ccccc4)C21)C3(C)C (stereo not drawn) [Compound 10c, 2’-O-[6-boronohexyl carbonate] docetaxel]				GI50 [2]: 273 nM; inhibition % at fixed concentration, 4T1 (printed in GI50 column) [1]: 35.97%@100 nM; inhibition % at fixed concentration, HCT-116 (printed in GI50 column) ([4]; @100 nM): 55.66%@100 nM
CC(=O)OC1C(=O)C2(C)C(O)CC3OCC3(OC(C)=O)C2C(OC(=O)c2ccccc2)C2(O)CC(OC(=O)C(OC(=O)CCCCCCB(O)O)C(NC(=O)c3ccccc3)c3ccccc3)C(C)=C1C2(C)C (stereo not drawn) [Compound 17e, 2’-O-[7-boronoheptanoyl]taxol]	> 100 nM	> 100 nM	> 100 nM	
CC(=O)OC1C(=O)C2(C)C(O)CC3OCC3(OC(C)=O)C2C(OC(=O)c2ccccc2)C2(O)CC(OC(=O)C(OC(=O)c3ccc(B(O)O)cc3)C(NC(=O)c3ccccc3)c3ccccc3)C(C)=C1C2(C)C (stereo not drawn) [Compound 6a, 2’-O-[4-boronobenzoyl]taxol]	> 100 nM	> 100 nM	> 100 nM	
CC(=O)OC12COC1CC(O)C1(C)C(=O)C(O)C3=C(C)C(OC(=O)C(OC(=O)CCCB(O)O)C(NC(=O)OC(C)(C)C)c4ccccc4)CC(O)(C(OC(=O)c4ccccc4)C21)C3(C)C (stereo not drawn) [Compound 17f, 2’-O-[4-boronobutanoyl]docetaxel]	14.5 nM			
CC(=O)OC1C(=O)C2(C)C(O)CC3OCC3(OC(C)=O)C2C(OC(=O)c2ccccc2)C2(O)CC(OC(=O)C(OC(=O)OCCCCCCB(O)O)C(NC(=O)c3ccccc3)c3ccccc3)C(C)=C1C2(C)C (stereo not drawn) [Compound 10b, 2’-O-[6-boronohexyl carbonate]taxol]	> 100 nM		> 100 nM	GI50 [2]: 745 nM
CC(=O)OC1C(=O)C2(C)C(O)CC3OCC3(OC(C)=O)C2C(OC(=O)c2ccccc2)C2(O)CC(OC(=O)C(OC(=O)CCCB(O)O)C(NC(=O)c3ccccc3)c3ccccc3)C(C)=C1C2(C)C (stereo not drawn) [Compound 17b, 2’-O-[4-boronobutanoyl]taxol]		69.2 nM	38.3 nM	inhibition % at fixed concentration, LO2 (printed in GI50 column) [2]: 38.06%@2 μM; inhibition % at fixed concentration, 4T1 (printed in GI50 column) [1]: 17.89%@100 nM
CC(=O)OC12COC1CC(O)C1(C)C(=O)C(O)C3=C(C)C(OC(=O)C(OC(=O)CCCCCB(O)O)C(NC(=O)OC(C)(C)C)c4ccccc4)CC(O)(C(OC(=O)c4ccccc4)C21)C3(C)C (stereo not drawn) [Compound 17g, 2’-O-[6-boronohexanoyl]docetaxel]				inhibition % at fixed concentration, 4T1 (printed in GI50 column) [1]: 35.83%@100 nM
CC(=O)OC1C(=O)C2(C)C(O)CC3OCC3(OC(C)=O)C2C(OC(=O)c2ccccc2)C2(O)CC(OC(=O)C(OC(=O)CCCCCB(O)O)C(NC(=O)c3ccccc3)c3ccccc3)C(C)=C1C2(C)C (stereo not drawn) [Compound 17d, 2’-O-[6-boronohexanoyl]taxol]	> 100 nM	> 100 nM	> 100 nM	
CC(=O)OC1C(=O)C2(C)C(O)CC3OCC3(OC(C)=O)C2C(OC(=O)c2ccccc2)C2(O)CC(OC(=O)C(OC(=O)CCSSCCC(=O)OCc3ccc(B(O)O)cc3)C(NC(=O)c3ccccc3)c3ccccc3)C(C)=C1C2(C)C (stereo not drawn) [Compound 4e, 2’-O-[3-((3-((4-boronobenzyl)oxy)-3-oxopropyl)disulfaneyl)propionyl]taxol]	> 100 nM			
CC(=O)OC12COC1CC(O)C1(C)C(=O)C(O)C3=C(C)C(OC(=O)C(OC(=O)CCC(=O)OCc4ccc(B(O)O)cc4)C(NC(=O)OC(C)(C)C)c4ccccc4)CC(O)(C(OC(=O)c4ccccc4)C21)C3(C)C (stereo not drawn) [Compound 4b, 2’-O-[4-((4-boronobenzyl)oxy)-4-oxobutyryl]docetaxel]	54.7 nM			

From publication PMC9694711, “Synthesis of Paclitaxel Derivatives for Remote Loading into Liposomes and Improved Therapeutic Effect” (Molecules, 2022)
